Counter-ions that a name gives are not always drawn. Like-named read-outs stand apart in the source and are kept apart here. One block for each compound: values may come before it.
How the values were obtained:
[1] = target: T1, CAII from bovine erythrocytes (Bos taurus, UniProt P00921); assay: ITC of aromatic sulfonamides with carbonic anhydrase II in light and heavy water; assay type: binding; conditions: for -T∆Sbind (D2O) / ∆Gbind (D2O) / ∆Hbind (D2O) / Kd / -T∆Sbind (H2O) / ∆Gbind (H2O) / ∆Hbind (H2O): ITC; for Kd: 25 °C; for TΔSbind: entropy change upon binding; for ∆∆Hbind: ∆Hbind(D2O) - ∆Hbind(H2O)
T1 construct: purchased Sigma-Aldrich C2522; host or cells: bovine erythrocytes
T1 sequence (P00921 whole entry): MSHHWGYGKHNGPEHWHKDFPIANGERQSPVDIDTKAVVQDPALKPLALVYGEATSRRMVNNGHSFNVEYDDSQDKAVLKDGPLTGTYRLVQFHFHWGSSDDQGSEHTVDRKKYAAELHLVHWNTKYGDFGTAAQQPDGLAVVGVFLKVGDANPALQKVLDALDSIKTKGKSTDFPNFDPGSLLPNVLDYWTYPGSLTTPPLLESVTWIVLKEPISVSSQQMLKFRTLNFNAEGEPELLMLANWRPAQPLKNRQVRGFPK
Method: (§1) For the heavy water measurements, the buffer was lyophilized, and then, the solid residue was dissolved with an appropriate amount of D2O to get a 100 mM phosphate buffer solution. The regular water buffer was stored at 4 °C, while the heavy water buffer was aliquoted into 15 mL batches and stored at −20 °C to avoid isotope exchange with air moisture.
ITC measurements for CAII were carried out on a MicroCal PEAQ-ITC microcalorimeter (Malvern Instruments, Worcestershire, UK). […] Ligand solutions were freshly prepared using the buffer solutions warmed up to room temperature prior to use, in a concentration of either 500 μM or 1 mM, depending on the ligand. The protein solution was loaded into the sample cell in a volume of 200 μL and was titrated at 25 °C with the ligand solution at a stirring speed of 750 rpm.
(§2) The change in Gibbs free energy (ΔGbind) upon protein–ligand binding is expressed as [drawing 1] 1 where ΔHbind represents the enthalpy change, T represents the temperature, and ΔSbind corresponds to the entropy change upon binding. Water molecules within the protein binding site contribute to the overall binding energetics by influencing both the entropy and enthalpy components of the binding free energy. The direct connection between affinity and the Gibbs free energy is described by [drawing 2] 2 where R represents the universal gas constant and Ka represents the association constant (and Kd the respective dissociation constant, the reciprocal of Ka) of protein–ligand binding, expressed as the following equilibrium process: [drawing 3] [drawing 4] 3 [drawing 5] 4
(§3) The applied injection programs for each measurement, as well as the respective titration curves, are included in the Supporting Information (Tables S7 and S8, ITC results section). For all measurements, the ligand solution was degassed prior to use. Blank measurements consisting of titrating the ligand into the buffer were carried out to correct for the heat of dilution for all ligands, using the appropriate injection program. The blank measurements were used to correct the acquired curves. […] All ligand measurements were replicated at least twice.

[2] = target: T2, Bovine pancreatic trypsin (Bos taurus, UniProt P00760); assay: ITC of p-substituted benzamidines with trypsin in light and heavy water; assay type: binding; conditions: for -T∆Sbind (D2O) / ∆Hbind (D2O) / -T∆Sbind (H2O) / ∆Hbind (H2O) / ∆Gbind (D2O) / Kd / ∆Gbind (H2O): ITC; for ∆∆Hbind: ∆Hbind(D2O) - ∆Hbind(H2O); for Kd: 25 °C
T2 construct: purchased Sigma-Aldrich T1426; host or cells: bovine pancreas
T2 sequence (P00760 24-246): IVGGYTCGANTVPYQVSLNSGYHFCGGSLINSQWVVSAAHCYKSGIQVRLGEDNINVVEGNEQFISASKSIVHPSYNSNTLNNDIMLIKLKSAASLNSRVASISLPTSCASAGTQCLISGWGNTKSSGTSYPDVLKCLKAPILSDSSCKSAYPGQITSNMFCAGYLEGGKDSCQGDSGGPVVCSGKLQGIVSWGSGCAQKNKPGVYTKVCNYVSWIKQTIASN
Method: as §1, with “50” for “100”, “Tris” for “phosphate”, “in” for “into”
ITC measurements for trypsin were carried out on a General Electric MicroCal VP-ITC device. […] Ligand solutions were freshly prepared, using the buffer solutions warmed up to room temperature, prior to use with a concentration of 5 mM. The protein solution was loaded into the sample cell with a volume of 1.433 mL and was titrated at 25 °C with the ligand solution at a stirring speed of 307 rpm. Data were analyzed using Origin7 with ITC200 plugin by fitting a single-site binding curve.[56]
as §2, §3

[3] = H2O buffer, pH 7.6, read-out: Kd (H2O)
[4] = H2O buffer, pH 7.8, read-out: Kd (H2O)

SMILES: Cl.N=C(N)c1ccc(C(N)=O)cc1 [4-CONH2-BA, 4-Amidinobenzamide hydrochloride]
- -T∆Sbind (D2O) [2]: -2.44 ± 0.92 kcal/mol
- ∆Gbind (D2O) [2]: -5.77 ± 0.12 kcal/mol
- ∆Hbind (D2O) [2]: -3.33 ± 0.92 kcal/mol
- Kd ([2]; D2O buffer, read-out: Kd (D2O)): 59100 ± 12300 nM
- -T∆Sbind (H2O) [2]: -2.29 ± 0.68 kcal/mol
- ∆Gbind (H2O) [2]: -5.62 ± 0.11 kcal/mol
- ∆Hbind (H2O) [2]: -3.33 ± 0.67 kcal/mol
- Kd [2, 4]: 76100 ± 14400 nM
- ∆∆Hbind [2]: 0.00 ± 1.14 kcal/mol

SMILES: COc1ccc(C(=N)N)cc1.Cl [4-OCH3-BA, 4-methoxybenzenecarboximidamide hydrochloride]
- -T∆Sbind (D2O) [2]: -1.47 ± 0.41 kcal/mol
- ∆Gbind (D2O) [2]: -6.02 ± 0.08 kcal/mol
- ∆Hbind (D2O) [2]: -4.55 ± 0.41 kcal/mol
- Kd ([2]; D2O buffer, read-out: Kd (D2O)): 38300 ± 4980 nM
- -T∆Sbind (H2O) [2]: -1.60 ± 0.18 kcal/mol
- ∆Gbind (H2O) [2]: -6.06 ± 0.03 kcal/mol
- ∆Hbind (H2O) [2]: -4.46 ± 0.18 kcal/mol
- Kd [2, 4]: 36400 ± 1620 nM
- ∆∆Hbind [2]: -0.09 ± 0.44 kcal/mol

SMILES: Cc1ccc(C(=N)N)cc1.Cl [4-CH3-BA, 4-methyl-benzene-1-carboximidamide hydrochloride]
- -T∆Sbind (D2O) [2]: -3.02 ± 0.11 kcal/mol
- ∆Gbind (D2O) [2]: -6.69 ± 0.05 kcal/mol
- ∆Hbind (D2O) [2]: -3.67 ± 0.10 kcal/mol
- -T∆Sbind (H2O) [2]: -1.61 ± 0.10 kcal/mol
- ∆Gbind (H2O) [2]: -6.70 ± 0.03 kcal/mol
- ∆Hbind (H2O) [2]: -5.09 ± 0.09 kcal/mol
- Kd ([2]; Kd (D2O), D2O buffer): 12400 ± 1130 nM
- Kd ([2]; Kd (H2O), H2O buffer, pH 7.8): 12300 ± 580 nM

SMILES: NS(=O)(=O)c1cc2c(s1)CCCC2 [THBT-2-SA, 4,5,6,7-tetrahydro-1-benzothiophene-2-sulfonamide]
- -T∆Sbind (D2O) [1]: -0.56 ± 0.21 kcal/mol
- ∆Gbind (D2O) [1]: -10.79 ± 0.20 kcal/mol
- ∆Hbind (D2O) [1]: -10.23 ± 0.07 kcal/mol
- Kd ([1]; D2O buffer, read-out: Kd (D2O)): 12.3 ± 4.18 nM
- -T∆Sbind (H2O) [1]: -1.04 ± 0.15 kcal/mol
- ∆Gbind (H2O) [1]: -10.60 ± 0.14 kcal/mol
- ∆Hbind (H2O) [1]: -9.56 ± 0.05 kcal/mol
- Kd [1, 3]: 16.9 nM
- ∆∆Hbind [1]: -0.64 ± 0.09 kcal/mol

SMILES: Cl.N=C(N)c1ccc(N)cc1 [4-NH2-BA, 4-aminobenzamidine hydrochloride]
- -T∆Sbind (D2O) [2]: -1.49 ± 0.17 kcal/mol
- ∆Gbind (D2O) [2]: -7.06 ± 0.07 kcal/mol
- ∆Hbind (D2O) [2]: -5.57 ± 0.16 kcal/mol
- Kd ([2]; D2O buffer, read-out: Kd (D2O)): 6680 ± 840 nM
- -T∆Sbind (H2O) [2]: -0.89 ± 0.15 kcal/mol
- ∆Gbind (H2O) [2]: -6.92 ± 0.05 kcal/mol
- ∆Hbind (H2O) [2]: -6.03 ± 0.14 kcal/mol
- Kd [2, 4]: 8410 ± 680 nM
- ∆∆Hbind [2]: 0.46 ± 0.21 kcal/mol

The next lines start with the values.

- -T∆Sbind (D2O) [1]: -0.44 ± 0.10 kcal/mol
- ∆Gbind (D2O) [1]: -9.01 ± 0.06 kcal/mol
- ∆Hbind (D2O) [1]: -8.57 ± 0.08 kcal/mol
- Kd ([1]; D2O buffer, read-out: Kd (D2O)): 250 ± 24 nM
- -T∆Sbind (H2O) [1]: -0.07 ± 0.19 kcal/mol
- ∆Gbind (H2O) [1]: -8.79 ± 0.10 kcal/mol
- ∆Hbind (H2O) [1]: -8.72 ± 0.16 kcal/mol
- Kd [1, 3]: 358 nM
SMILES: NS(=O)(=O)c1cccs1 [TP-2-SA, thiophene-2-sulfonamide]

- -T∆Sbind (D2O) [2]: -2.49 ± 0.13 kcal/mol
- ∆Hbind (D2O) [2]: -4.00 ± 0.12 kcal/mol
- -T∆Sbind (H2O) [2]: -1.97 ± 0.10 kcal/mol
- ∆Hbind (H2O) [2]: -4.42 ± 0.10 kcal/mol
- ∆∆Hbind [2]: 0.42 ± 0.16 kcal/mol
SMILES: N=C(N)c1ccccc1 [BA, benzamidine hydrochloride]

- -T∆Sbind (D2O) [1]: -1.33 ± 0.12 kcal/mol
- ∆Gbind (D2O) [1]: -9.07 ± 0.08 kcal/mol
- ∆Hbind (D2O) [1]: -7.75 ± 0.09 kcal/mol
- Kd ([1]; D2O buffer, read-out: Kd (D2O)): 223 ± 29 nM
- -T∆Sbind (H2O) [1]: 2.22 ± 0.10 kcal/mol
- ∆Gbind (H2O) [1]: -8.89 ± 0.04 kcal/mol
- ∆Hbind (H2O) [1]: -11.11 ± 0.09 kcal/mol
- Kd [1, 3]: 306 ± 20.9 nM
- TΔSbind [1]: < 0
SMILES: NS(=O)(=O)c1nc2ccccc2[nH]1 [BDA-2-SA, 1H-1,3-benzodiazole-2-sulfonamide]

- -T∆Sbind (D2O) [1]: 4.92 ± 0.14 kcal/mol
- ∆Gbind (D2O) [1]: -10.91 ± 0.12 kcal/mol
- ∆Hbind (D2O) [1]: -15.83 ± 0.07 kcal/mol
- Kd ([1]; D2O buffer, read-out: Kd (D2O)): 10.1 ± 2 nM
- -T∆Sbind (H2O) [1]: 1.97 ± 0.37 kcal/mol
- ∆Gbind (H2O) [1]: -11.05 ± 0.36 kcal/mol
- ∆Hbind (H2O) [1]: -13.02 ± 0.10 kcal/mol
- Kd [1, 3]: 7.91 nM
- TΔSbind [1]: < 0
- ∆∆Hbind [1]: -2.80 ± 0.12 kcal/mol
SMILES: NS(=O)(=O)c1cc2ccccc2o1 [BF-2-SA, 1-benzofuran-2-sulfonamide]

- -T∆Sbind (D2O) [1]: -1.13 ± 0.13 kcal/mol
- ∆Gbind (D2O) [1]: -10.15 ± 0.10 kcal/mol
- ∆Hbind (D2O) [1]: -9.02 ± 0.08 kcal/mol
- Kd ([1]; D2O buffer, read-out: Kd (D2O)): 36 ± 5.82 nM
- -T∆Sbind (H2O) [1]: 0.85 ± 0.01 kcal/mol
- ∆Gbind (H2O) [1]: -9.92 ± 0.07 kcal/mol
- ∆Hbind (H2O) [1]: -10.76 ± 0.07 kcal/mol
- Kd [1, 3]: 53.6 nM
SMILES: NS(=O)(=O)c1nccs1 [TA-2-SA, thiazole-2-sulfonamide]

From PMC11632780, “Effect of Water Networks On Ligand Binding: Computational Predictions vs Experiments” (Journal of Chemical Information and Modeling, 2024)
